Experiments:
MSC/N2a/HCEC = test: Whole-cell EPR, results stated jointly for MSC/N2a/HCEC; type: cell-based; details: for tmax for cellular uptake: stated jointly for MSC/N2a/HCEC
Protocol: Cellular uptake of DNIC–COOH and intracellular formation/decomposition of mononuclear DNICs in MSC/N2a/HCEC cells were investigated using EPR spectroscopy. Briefly, cells were seeded into two (or one) 100 mm dish(es) at a density of 2 × 10^6 cells/dish and incubated at 37 °C overnight. On the next day, cells were treated with 100 μM of DNIC–COOH (or 100 μM of DNIC–COOH to N2a and 75 μM of DNIC–COOH to HCEC) and incubated for 0, 0.5, 1, 2, 3, 4, 8, and 24 h, respectively. After removal of the supernatant solution, cells were washed with DPBS before addition of 1 mL of trypsin (0.05%)/EDTA (0.53 mM) and incubation for 5 min at 37 °C. After the obtained cell suspension solutions from two 100 mm dishes were combined and centrifuged at 100g for 5 min, the supernatant was removed before addition of 100 μL of αMEM to DNIC-treated MSC (or MEM to DNIC-treated N2a and HSFM to DNIC-treated HCEC). This solution was then transferred into EPR quartz tube and frozen in N2(l) before the EPR measurements. For each measured EPR spectrum, double integration was executed to obtain the integrated EPR intensity under each condition. Moreover, time-dependent decay of integrated EPR signal intensity after treatment of DNIC–COOH was fit to pseudo-first-order kinetics in order to determine the intracellular half-life for EPR-active mononuclear DNIC. Three independent experiments were executed to measure the average half-life for intracellular decomposition of EPR-active mononuclear DNIC after treatment with DNIC–COOH at 37 °C. On the other hand, at the time point with maximum integrated EPR signal intensity, spin quantitation of intracellular EPR-active DNICs was performed using mononuclear DNIC [PPN][(NO)2Fe(S5)] as a standard according to the methodology used in the previous work.[50] Cellular uptake of DNIC–COOMe (2.5 μM to MSC, 10 μM to N2a, or 1 μM to HCEC) and intracellular formation/decomposition of EPR-active mononuclear DNICs were investigated using EPR spectroscopy in a similar manner. […]

BSA = target: T1, BSA (Bos taurus, UniProt P02769); test: Formation and degradation of albumin-bound DNIC in cell culturing media with FBS (EPR); type: in vitro ADME, bovine
T1 construct: 2 mL of αMEM with the presence of 20% FBS; from tissue; host or cells: fetal bovine serum (FBS) in αMEM / MEM / HSFM culture media
Protocol: 50 μM of DNIC–COOH was prepared via addition of 1 μL of 100 mM stock solution of DNIC–COOH in DMSO to 2 mL of αMEM with the presence of 20% FBS. After this solution was incubated at 37 °C for 0, 0.5, 1, 2, 3, 4, 8, and 24 h, respectively, EPR spectra of 100 μL aliquots of this solution were measured. Moreover, double integration of the EPR signal was executed to obtain the integrated EPR signal intensity under each condition, which was further utilized to characterize the time-dependent formation and degradation of BSA-bound DNIC. EPR investigations on the formation and degradation of protein-bound DNICs upon incubation of (1) 50 μM DNIC–COOMe in αMEM with the presence of 20% FBS, (2) 50 μM DNIC–COOH (or DNIC–COOMe) in MEM with the presence of 5% FBS, and (3) 50 μM DNIC–COOH (or DNIC–COOMe) in HSFM with the presence of 2% FBS were performed in a similar manner. In addition, EPR spectra for 50 μM of DNIC–COOH (or 50 μM of DNIC–COOMe) in αMEM, MEM, and HSFM, respectively, were also measured.

T1 sequence (P02769 25-607): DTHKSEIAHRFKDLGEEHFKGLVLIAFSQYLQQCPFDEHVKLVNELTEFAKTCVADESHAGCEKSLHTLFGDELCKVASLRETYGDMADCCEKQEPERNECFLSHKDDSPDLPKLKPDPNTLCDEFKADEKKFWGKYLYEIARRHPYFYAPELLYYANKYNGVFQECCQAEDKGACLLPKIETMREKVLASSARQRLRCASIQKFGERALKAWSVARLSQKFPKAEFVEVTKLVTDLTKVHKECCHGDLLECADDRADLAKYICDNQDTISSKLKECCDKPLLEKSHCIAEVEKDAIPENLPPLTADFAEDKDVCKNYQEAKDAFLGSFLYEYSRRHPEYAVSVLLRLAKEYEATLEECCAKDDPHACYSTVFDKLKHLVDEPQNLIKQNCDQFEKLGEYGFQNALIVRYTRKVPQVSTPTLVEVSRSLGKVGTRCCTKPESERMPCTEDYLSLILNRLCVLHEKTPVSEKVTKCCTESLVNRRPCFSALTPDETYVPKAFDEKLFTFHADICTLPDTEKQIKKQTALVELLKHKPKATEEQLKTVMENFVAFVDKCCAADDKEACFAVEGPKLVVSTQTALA

Structure (SMILES)	tmax for cellular uptake (MSC/N2a/HCEC) [min]	binding to BSA yielding albumin-bound DNIC (BSA)	tmax for intracellular assembly of mononuclear DNICs (MSC/N2a/HCEC; MSC/N2a/HCEC, hypoxia) [min]
O=[N][Fe]1([N]=O)[SH](CCC(=O)O)[Fe]([N]=O)([N]=O)[SH]1CCC(=O)O (centres unmarked) [DNIC–COOH, [(NO)2Fe(μ-SCH2CH2COOH)2Fe(NO)2]]	120 to 480	slow binding	
COC(=O)CC[SH]1[Fe]([N]=O)([N]=O)[SH](CCC(=O)OC)[Fe]1([N]=O)[N]=O (centres unmarked) [DNIC–COOMe, [(NO)2Fe(μ-SCH2CH2COOCH3)2Fe(NO)2]]	30	rapid binding	30

— paper PMC11040670, “Mechanistic and Kinetic Insights into Cellular Uptake of Biomimetic Dinitrosyl Iron Complexes and Intracellular Delivery of NO for Activation of Cytoprotective HO-1” (JACS Au, 2024)
